Source: PMC10799058, “Exploring the mechanism and phytochemicals in Psoraleae Fructus-induced hepatotoxicity based on RNA-seq, in vitro screening and molecular docking” (Scientific Reports, 2024)
In brackets after ≈: the same amount, converted by molar mass. Where two headings read alike, the source gives them in different places.

Assays:
AML-12 cells [1] = test: CCK-8 assay, toxic effects on AML-12 cells; assay type: cell-based; details: for IC50: CCK-8, treatment 24 h, read-out: IC50 toward AML12 cells
Description: To uncover the potential hepatotoxic components, CCK-8 assay was performed toevaluate the toxic effects of 9 chemicals in PF on AML-12 cells. With the treatment […]
AML-12 cells were seeded into 96-well plates for 24 h until they visibly reached confluence. Then, AML-12 cells were treated with different concentrations of the nine chemical compounds in PF for 24 h. The multiple concentrations of each compound […]
wells were set up for each group. After treatment, AML-12 cells were washed with PBS buffer gently and incubated with DMEM/F12 medium containing 10% CCK-8 solution for 0.5-2 h. OD value was measured with live cell imaging system (Cytation 5,BioTek, USA) at 450 nm.
Cell viability (%) = [(OD value of the experimental group − OD value of the blank group)/ (OD value of the control group − OD value of the blank group)] ×

AML-12 cells [2] = test: High-content screening of mitotoxic endpoints (MMP by TMRM, mitochondrial superoxide by MitoSOX Red); details: 15 μmol/L, 24 h; for mitochondrial toxicity, overall ranking among 9 phytochemicals: MMP and mitochondrial superoxide taken together; for fluorescence intensity of Mitosox red (mitochondrial superoxide): versus control
Description: AML-12 cells were purchased from Procell (CL-0602, Wuhan, China) and cultured in cultured in DMEM/F12 medium (Gibco, Thermo Fisher Scientific, USA) with the supplement of 10% fetal bovine serum (FBS, Biological Industrials) and 1% penicillin/streptomycin (FG101-01, Transgene, China). AML-12 cells were maintained in a humidified incubator containing 5% CO2 at 37 °C.
AML-12 cells were seeded into 96-well plates and incubated at 37 °C in an atmosphere containing 5% CO2 for 12 h until they visibly reached confluence. After the cells were treated with the same concentration of each drug (15 μmol/L) for 24 h, the supernatants were removed from the cell plates and the fluorescent dyes were added. Hoechst 33,342 was applied to characterize cell counts and nuclear area. TMRM and MitoSOX™ Red were applied to characterize mitochondrial membrane potential (MMP) and mitochondrial superoxides, respectively. Then, the multi-parameter cytotoxicities were measured by a high content imaging system (Molecular Devices, Metaxpress) and subsequent data analysis was performed by Harmony 3.0 Software (Perkin Elmer, Waltham, MA, USA). Each experiment was assayed in triplicate wells and three independent replicates.

[3] = Solubility in DMEM/F12 culture medium; details: aqueous buffer, kinetic from dmso stock

Compound	IC50 (AML-12 cells [1]; Mus musculus, AML12)	mitochondrial toxicity, overall ranking among 9 phytochemicals (AML-12 cells [2])	fluorescence intensity of Mitosox red (mitochondrial superoxide) (AML-12 cells [2])	toxicity to AML-12 cells (AML-12 cells [1])	solubility [3]	IC50 (AML-12 cells [1])
C=C[C@@](C)(/C=C/c1ccc(O)cc1)CCC=C(C)C [bakuchiol]	35 µM	most potent mitochondrial toxicities	prominently promoted			
CC(C)=CCc1cc2c(cc1O)O[C@H](c1ccc(O)cc1)CC2=O [bavachin, Bavachin]	33.2 µM	most potent mitochondrial toxicities	prominently promoted			
CC(C)=CCc1c(O)ccc(C(=O)/C=C/c2ccc(O)cc2)c1O [isobavachalcone]	28.9 µM	most potent mitochondrial toxicities	prominently promoted			
O=c1ccc2ccc3occc3c2o1 [isopsoralen]				no obvious toxicity	800 µM (≈ 149 µg/mL)	
CC(C)=CCc1cc2c(cc1O)oc(=O)c1c3ccc(O)cc3oc21 [psoralidin, Psoralidin]			prominently promoted			17.7 µM
Corylin						34.4 µM
bavachinin						60.2 µM
